The structures appear in SMILES notation. Converted amounts (≈) assume the structure as drawn. Residues, ends and D or L forms follow the SMILES beside them.

The assay has as its system Staphylococcus aureus. Briefly: Antimicrobial activity against Staphylococcus aureus. Format: functional.

For `CC(C)=CC[C@@]12C[C@H]3C(=O)N[C@@H](CO)C(=O)N[C@@H]([C@@H](C)O)C(=O)N4CCC[C@H]4C(=O)N4[C@@H](C[C@@]5(CC=C(C)C)c6ccccc6N[C@@H]45)C(=O)N[C@H](CC(C)C)C(=O)N[C@@H](CC(N)=O)C(=O)NCC(=O)N[C@@H](CC(=O)O)C(=O)N[C@@H](CC(N)=O)C(=O)N[C@@H](CC(N)=O)C(=O)N3[C@H]1Nc1ccccc12` [KAWAGUCHIPEPTIN A], the MIC worked out at 1 µg/mL (≈ 0.703 µM).
As for `CC(C)C[C@@H]1NC(=O)[C@H](Cc2c[nH]c3ccccc23)NC(=O)[C@@H]2CCCN2C(=O)[C@H]([C@@H](C)O)NC(=O)[C@H](CO)NC(=O)[C@H](Cc2c[nH]c3ccccc23)NC(=O)[C@H](CC(N)=O)NC(=O)[C@H](CC(N)=O)NC(=O)[C@H](CC(=O)O)NC(=O)CNC(=O)[C@H](CC(N)=O)NC1=O` [KAWAGUCHIPEPTIN B] (HELM PEPTIDE1{D.N.N.W.S.T.P.W.L.N.G}$PEPTIDE1,PEPTIDE1,1:R1-11:R2$$$V2.0), the figure is 1 µg/mL (≈ 0.778 µM).

These data come from ChEMBL document CHEMBL1146442, “Kawaguchipeptin B, an antibacterial cyclic undecapeptide from the cyanobacterium Microcystis aeruginosa” (1997).
